# US20190105367A1, “ANTIMICROBIAL 4-OXOQUINOLIZINES” (Emergent Product Development Gaithersburg Inc., priority 2011, published 2019)
# Like-named read-outs stand apart in the source and are kept apart here.
# Experiments:
# [1] = tested on: A. baumannii A489; assay: Preliminary MBC without and with sub-inhibitory polymyxin B (Example 4); assay type: cell-based, Acinetobacter baumannii; conditions: A. baumannii A489, preliminary MBC; for MBC: 2nd experiment
# [2] = tested on: A. baumannii A387; assay: MIC without and with sub-inhibitory polymyxin B (Example 4); assay type: cell-based, Acinetobacter baumannii; conditions: A. baumannii A387
# [3] = tested on: A. baumannii NCTC 13301; assay: as above; assay type: cell-based, Acinetobacter baumannii; conditions: A. baumannii NCTC 13301, 1st experiment
# [4] = tested on: A. baumannii A14; assay: as above; assay type: cell-based, Acinetobacter baumannii; conditions: 1st experiment
# [5] = tested on: A. baumannii A489; assay: as above; assay type: cell-based, Acinetobacter baumannii; conditions: A. baumannii A489
# [6] = tested on: A. baumannii J2; assay: as above; assay type: cell-based, Acinetobacter baumannii; conditions: A. baumannii J2
# [7] = tested on: A. baumannii A473; assay: as above; assay type: cell-based, Acinetobacter baumannii; conditions: A. baumannii A473
# [8] = tested on: A. baumannii A387; assay: Preliminary MBC without and with sub-inhibitory polymyxin B (Example 4); assay type: cell-based, Acinetobacter baumannii; conditions: for MBC: 2nd experiment
# [9] = tested on: Acinetobacter sp. (H064200250); assay: MIC without and with sub-inhibitory polymyxin B (Example 4); assay type: cell-based
# [10] = tested on: A. baumannii A401; assay: as above; assay type: cell-based, Acinetobacter baumannii; conditions: A baumannii A 401; for MIC: 2nd experiment
# [11] = tested on: A. baumannii A401; assay: Preliminary MBC without and with sub-inhibitory polymyxin B (Example 4); assay type: cell-based, Acinetobacter baumannii; conditions: for MBC: 2nd experiment
# [12] = tested on: A. baumannii A329; assay: MIC without and with sub-inhibitory polymyxin B (Example 4); assay type: cell-based, Acinetobacter baumannii; conditions: A. baumannii A329
# [13] = tested on: A. baumannii ATCC 19606; assay: as above; assay type: cell-based, Acinetobacter baumannii
# [14] = tested on: strains of A. baumannii and one strain of Acinetobacter sp.; assay: MIC with sub-inhibitory concentrations (0.25x MIC) of polymyxin B, panel of Acinetobacter strains (Example 4); assay type: cell-based
# [15] = tested on: Acinetobacter sp. (H064200250); assay: Preliminary MBC without and with sub-inhibitory polymyxin B (Example 4); assay type: cell-based; conditions: preliminary MBC; for MBC: Acinetobacter spp. H064200250 (OXA51), 2nd experiment
# Method in brief: (§1)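 Read-out: the minimum concentration at which colonies were reduced by ca. 90% relative to positive control, usually seen as isolated colonies or a clear plate. Plates had been kept 18-20 hours at 37° C beforehand.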
# [16] = tested on: A. baumannii A329; assay: as above; assay type: cell-based, Acinetobacter baumannii; conditions: for MBC: 2nd experiment
# [17] = tested on: A. baumannii A390; assay: as above; assay type: cell-based, Acinetobacter baumannii; conditions: for MBC: 2nd experiment
# Method in brief: as §1
# [18] = tested on: A. baumannii NCTC 13301; assay: as above; assay type: cell-based, Acinetobacter baumannii; conditions: A. baumannii NCTC 13301, preliminary MBC; for MBC: 2nd experiment
# Method in brief: as §1
# [19] = tested on: A. baumannii A473; assay: as above; assay type: cell-based, Acinetobacter baumannii; conditions: for MBC: 2nd experiment
# Method in brief: as §1
# [20] = tested on: A. baumannii A14; assay: as above; assay type: cell-based, Acinetobacter baumannii; conditions: 2nd experiment
# Method in brief: as §1
# [21] = tested on: A. baumannii J2; assay: as above; assay type: cell-based, Acinetobacter baumannii; conditions: A. baumannii J2, preliminary MBC; for MBC: 2nd experiment
# [22] = tested on: A. baumannii A14; assay: as above; assay type: cell-based, Acinetobacter baumannii; conditions: A. baumannii A14, preliminary MBC, 1st experiment
# [23] = tested on: A. baumannii NCTC 13301; assay: MIC without and with sub-inhibitory polymyxin B (Example 4); assay type: cell-based, Acinetobacter baumannii; conditions: A. baumannii NCTC 13301, 2nd experiment
# [24] = tested on: A. baumannii ATCC 19606; assay: Preliminary MBC without and with sub-inhibitory polymyxin B (Example 4); assay type: cell-based, Acinetobacter baumannii; conditions: for MBC: 2nd experiment
# [25] = +[…] polymyxin B, 1st experiment
# [26] = without polymyxin B, 1st experiment
# [27] = ratio, PB 0.06 μg/ml, 1st experiment
# [28] = Acinetobacter spp. H064200250 (OXA51), +[…] PB, 2nd experiment
# [29] = Acinetobacter spp. H064200250, without polymyxin B, 1st experiment
# [30] = A. baumannii ATCC 19606, +0.06 μg/ml PB, 2nd experiment
# [31] = A. baumannii ATCC 19606, +0.06 μg/ml polymyxin B, 1st experiment
substance,measurement,setting,value
"8-[(3S)-3-aminocyclopentyl]-1- cyclopropyl-7-fluoro-9-methyl- 4-oxo-quinolizine-3-carboxylic acid [Compound 10, reference compound]",MBC,[1]; +[…] PB,1 µg/mL
same,MBC +[…] PB,[1]; [25],1.00 µg/mL
same,MBC,[1]; without PB,1 µg/mL
same,MBC without PB,[1]; [26],1 µg/mL
same,MIC,"[2]; +0.06 μg/ml PB, 2nd experiment",0.5 µg/mL
same,MIC without PB/MIC + PB,"[2]; +0.06 μg/ml PB, 2nd experiment",1
same,MIC without PB/MIC + PB,[2]; [27],1
same,MIC,"[2]; without PB, 2nd experiment",0.5 µg/mL
same,MIC without PB,[2]; [26],0.5 µg/mL
same,MIC +[…] PB,[3]; +[…] polymyxin B,1.00 µg/mL
same,MIC without PB/MIC + PB,"[3]; ratio, PB […]",8
same,MIC without PB,[3]; without polymyxin B,8 µg/mL
same,MIC +0.06 μg/ml PB,[4]; +0.06 μg/ml polymyxin B,8.00 µg/mL
same,MIC without PB/MIC + PB,"[4]; ratio, PB 0.06 μg/ml",1
same,MIC without PB,[4]; without polymyxin B,8 µg/mL
same,MIC,"[5]; +[…] PB, 2nd experiment",0.5 µg/mL
same,MIC without PB/MIC + PB,"[5]; +[…] PB, 2nd experiment",2
same,MIC +[…] PB,[5]; [25],1.00 µg/mL
same,MIC without PB/MIC + PB,"[5]; ratio, PB […], 1st experiment",1
same,MIC,"[5]; without PB, 2nd experiment",1 µg/mL
same,MIC without PB,[5]; [26],1 µg/mL
same,MIC,"[6]; +[…] PB, 2nd experiment",0.25 µg/mL
same,MIC without PB/MIC + PB,"[6]; +[…] PB, 2nd experiment",8
same,MIC +[…] PB,[6]; [25],1 µg/mL
same,MIC without PB/MIC + PB,"[6]; ratio, PB […], 1st experiment",2
same,MIC,"[6]; without PB, 2nd experiment",2 µg/mL
same,MIC without PB,[6]; [26],2 µg/mL
same,MIC,"[7]; +0.06 μg/ml PB, 2nd experiment",0.5 µg/mL
same,MIC without PB/MIC + PB,"[7]; +0.06 μg/ml PB, 2nd experiment",0
same,MIC without PB,[7]; [26],1 µg/mL
same,MBC,"[8]; A. baumannii A387, +0.06 μg/ml PB",0.5 µg/mL
same,MBC +0.06 μg/ml PB,"[8]; A. baumannii A387, +0.06 μg/ml polymyxin B, 1st experiment",0.25 µg/mL
same,MBC,"[8]; A. baumannii A387, without PB",0.5 µg/mL
same,MBC without PB,"[8]; A. baumannii A387, without polymyxin B, 1st experiment",0.5 µg/mL
same,MIC +[…] PB,[9],1 µg/mL
same,MIC without PB/MIC + PB,[9],2
same,MIC,[9]; [28],1 µg/mL
same,MIC without PB/MIC + PB,[9]; [28],1
same,MIC,"[9]; Acinetobacter spp. H064200250 (OXA51), without PB, 2nd experiment",1 µg/mL
same,MIC without PB,[9]; [29],2 µg/mL
same,MIC,[10]; +0.06 μg/ml PB,1 µg/mL
same,MIC +0.06 μg/ml PB,"[10]; +0.06 μg/ml polymyxin B, 1st experiment",1.00 µg/mL
same,MIC without PB/MIC + PB,[10]; [27],2
same,MIC,[10]; without PB,1 µg/mL
same,MIC without PB,[10]; [26],2 µg/mL
same,MBC,"[11]; A baumannii A 401, +0.06 μg/ml PB",1 µg/mL
same,MBC +0.06 μg/ml PB,"[11]; A baumannii A 401, +0.06 μg/ml polymyxin B, 1st experiment",1.00 µg/mL
same,MBC,"[11]; A baumannii A 401, without PB",1 µg/mL
same,MBC without PB,"[11]; A baumannii A 401, without polymyxin B, 1st experiment",1 µg/mL
same,MIC,"[12]; +0.06 μg/ml PB, 2nd experiment",1 µg/mL
same,MIC without PB/MIC + PB,"[12]; +0.06 μg/ml PB, 2nd experiment",2
same,MIC read with alamar blue,"[12]; +0.06 μg/ml PB, value in parentheses, 2nd experiment",2 µg/mL
same,MIC,"[12]; without PB, 2nd experiment",2 µg/mL
same,MIC without PB,[12]; [26],8 µg/mL
same,MIC,[13]; [30],0.06 µg/mL
same,MIC without PB/MIC + PB,[13]; [30],2
same,MIC +0.06 μg/ml PB,[13]; [31],0.03 µg/mL
same,MIC without PB/MIC + PB,"[13]; A. baumannii ATCC 19606, ratio, PB 0.06 μg/ml, 1st experiment",256
same,MIC,"[13]; A. baumannii ATCC 19606, without PB, 2nd experiment",0.125 µg/mL
same,MIC,"[13]; A. baumannii ATCC 19606, without PB, value in parentheses marked *, mark not explained, 2nd experiment",0.06 µg/mL
same,Activity against the A. baumannii ATCC 19606 strain,[13]; with and without sub-inhibitory concentrations of polymyxin B,potent activities
same,Change of activity (MIC) in presence of polymyxin B compared to without polymyxin B,[14],less potentiated
same,"Range ratios MIC without PB/MIC with PB Oct. 1, 2008 n = 8",[14]; 1st experiment,1-8
same,"MIC range with PB (0.25x MIC) Oct. 1, 2008 n = 8","[14]; 1st experiment, […] polymyxin B, ATCC 19606, A329, A390 and A473 not taken",0.5 to 8 µg/mL
same,"Range ratios MIC without PB/MIC with PB Oct. 14, 2008 n = 11",[14]; 2nd experiment,1-8
same,"MIC range with PB (0.25x MIC) Oct. 14, 2008 n = 11","[14]; 2nd experiment, 0.06 μg/ml polymyxin B, all strains except the ATCC strain",0.25 to 2 µg/mL
same,MBC,[15]; +[…] PB,0.5 µg/mL
same,MBC,[15]; without PB,1 µg/mL
same,MBC +[…] PB,"[15]; Acinetobacter spp. H064200250, +[…] polymyxin B, 1st experiment",1 µg/mL
same,MBC without PB,[15]; [29],0.5 µg/mL
same,MBC,"[16]; A. baumannii A329, +0.06 μg/ml PB",2 µg/mL
same,MBC,"[16]; A. baumannii A329, without PB",2 µg/mL
same,MBC without PB,"[16]; A. baumannii A329, without polymyxin B, 1st experiment",2 µg/mL
same,MBC,"[17]; A. baumannii A390, +0.06 μg/ml PB",0.5 µg/mL
same,MBC,"[17]; A. baumannii A390, without PB",1 µg/mL
same,MBC without PB,"[17]; A. baumannii A390, without polymyxin B, 1st experiment",1 µg/mL
same,MBC,[18]; +[…] PB,0.5 µg/mL
same,MBC +[…] PB,[18]; [25],1.00 µg/mL
same,MBC,[18]; without PB,2 µg/mL
same,MBC without PB,[18]; [26],2 µg/mL
same,MBC,"[19]; A. baumannii A473, +0.06 μg/ml PB",0.5 µg/mL
same,MBC,"[19]; A. baumannii A473, without PB",1 µg/mL
same,MBC without PB,"[19]; A. baumannii A473, without polymyxin B, 1st experiment",0.5 µg/mL
same,MBC,"[20]; A. baumannii A14, +0.06 μg/ml PB",1 µg/mL
same,MBC,"[20]; A. baumannii A14, without PB",2 µg/mL
same,MBC,[21]; +[…] PB,0.25 µg/mL
same,MBC +[…] PB,[21]; [25],1 µg/mL
same,MBC,[21]; without PB,2 µg/mL
same,MBC without PB,[21]; [26],1 µg/mL
same,MBC +0.06 μg/ml PB,[22]; +0.06 μg/ml polymyxin B,2.00 µg/mL
same,MBC without PB,[22]; without polymyxin B,2 µg/mL
same,MIC,[23]; +[…] PB,0.5 µg/mL
same,MIC without PB/MIC + PB,[23]; +[…] PB,4
same,MIC,[23]; without PB,2 µg/mL
same,MBC,"[24]; A. baumannii ATCC 19606, +0.06 μg/ml PB",0.03 µg/mL
same,MBC +0.06 μg/ml PB,[24]; [31],0.03 µg/mL
same,MBC,"[24]; A. baumannii ATCC 19606, without PB",0.125 µg/mL
